Source: US7741540B2, “Compositions comprising D-amino acids” (BASF Plant Science GmbH, priority 2002, dated 2010)
“Also recorded” adds a separate entry of the source.

What was measured:
[1] = system: wild-type Arabidopsis thaliana; assay: Growth of wild-type plants on sterile agar supplied with D-serine; type: in vivo; details: for toxicity to wild-type plants: FIG. 3, FIG. 5
Protocol: A. thaliana seeds from non-transformed plants and D-Serine ammonia-lyase transformed plants were surface sterilised with 70% ethanol and 0.1% Tween 80 for 10 minutes and rinsed briefly in 95% ethanol. 10 seeds were sown in each plate and the plates where thereafter sealed with gas permeable tape. The growth medium was half-strength MS (Murashige, T. & Skoog, F. Physiol Plant 15, 310-313 (1962)) (with 0.5% w/v sucrose and 0.8% w/v agar) with nitrogen either excluded or included as 3 mM nitrate. Filter sterilised D-serine was added to the medium after autoclaving. Plants were grown for 14 days after germination with a 16 h photoperiod at 24° C. Plants were extracted from the plates, washed three times in 0.5 mM CaCl2 and thereafter dried at 40° C. for 48 hours before dry weight measurements. The N content was determined on dried plants using an elemental analyser (PerkinElmer 2400 CHN). Biomass and nitrogen content were measured on a per plate basis and there were 10 plants per plate. Six independent transgenic lines were evaluated for their capacity to grow on D-serine and no substantial difference was noticed among the lines, although dsdA transcript levels varied substantially according to northern blot analyses. Seeds from Solanum esculentum, Hordeum vulgare, Zea mays, Populus tremuloides, Nicotiana tabacum and Arabidopsis thaliana were surface sterilised and grown for two to three weeks on agar media identical to the nitrate free media described above and amended with 0, 0.3, 3 and 30 mM D-serine. […] For A. thaliana, clear growth inhibition is observed at a concentration of 0.3 mM D-serine in the growth medium and total growth inhibition occurs at 3 mM (FIG. 3). Transgenic Arabidopsis thaliana plants expressing the gene encoding D-serine dehydratase were grown sterile alongside wild type plants on agar for 20 days on standard MS medium supplemented with varying concentrations of D-serine as the sole N source (30 mM, 3 mM, 0.3 mM) along with a control lacking any nitrogen.

[2] = system: tobacco transformed with dsdA; assay: Resistance of dsdA-transformed plants to D-Ser; details: in vivo
From the text: (§1) Poplar and tobacco were transformed using the same vector and transformation protocol described above for the transformation of Arabidopsis.

[3] = system: poplar transformed with dsdA; assay: Resistance of dsdA-transformed plants to D-Ser; details: in vivo
From the text: as §1

[4] = system: dsdA-transformed embryos of Picea abies; assay: Selection of dsdA-transformed embryos on D-serine medium; type: cell-based
Protocol: The transformation method used was particle bombardment of a cell suspension. Somatic embryonic cell suspension cultures of Picea abies were grown on a range of D-serine concentrations; 0, 0.3, 3 and 30 mM D-serine. D-serine was lethal to cells at and above 3 mM.

[5] = system: Arabidopsis thaliana expressing Rhodotorula gracilis D-amino acid oxidase (dao1); assay: Growth of plants expressing D-amino acid oxidase on D-amino acid media in sterile agar culture; type: in vivo
From the text: Transgenic plants expressing D-amino acid oxidase were constructed essentially in the same way as the dsdA plants described above, with the following modifications: The dao1 gene (EC: 1.4.3.3 (SEQ ID NO: 6): NCBIU60066 (SEQ ID NO: 5)) from the yeast Rhodotorula gracilis (Rhodosporidium toruloides) was cloned with PCR with a cDNA library prepared from yeast grown on D-alanine containing medium to induce expression of the target gene, as a template. PCR primers were 5′-[…] (SEQ ID NO: 3) and 5′-[…] (SEQ ID NO: 4).
PCR was also performed with another set of primers, with one primer flanking the 5′ end of the open reading frame as set out above and a 3′ primer excluding the last […] nucleotides. The last nine nucleotides encode the signal peptide SKL, which guides the protein to the peroxisome sub-cellular organelle.
The resulting amplified sequences encode proteins which have the same amino acid sequence but which differ in the respect of their location in the cell. The truncated polypeptide, without the signal peptide, is expressed in the cytosol, while the full-length polypeptide is expressed in the peroxisome.
Construction of Arabidopsis thaliana plants expressing two variants of Rhodotorula gracilis D-amino acid oxidase were made as described above.

wild type poplar = assay: Shoot formation on shoot inducing media with D-Ser; type: in vivo
wild type tobacco = assay: Shoot formation on shoot inducing media with D-Ser; type: in vivo
[6] = system: Arabidopsis seedlings grown on soil; assay: Selection of transgenic seedlings on soil by spraying D-Serine; type: in vivo, Arabidopsis thaliana; details: 30 mM sprayed three times during one week
[7] = system: transgenic Arabidopsis thaliana expressing E. coli D-serine ammonia-lyase (dsdA); assay: Growth and N content of transgenic plants expressing dsdA on D-serine media; type: in vivo
From the text: The E. coli gene dsdA (D-serine dehydratase (D-serine deaminase) [EC:4.3.1.18 (SEQ ID NO: 8)] NCBI accession number J01603 (SEQ ID NO: 7)) was amplified by PCR using primers 5′-[…] (SEQ ID NO: 1) and 5′-[…] (SEQ ID NO: 2). The PCR product was sub-cloned into pT-easy (Promega) and sequenced with DYEnamics cycle sequencing kit, (Amersham Pharmacia biotech). Alignment analysis with the database sequence confirmed successful full length cloning of dsdA. The clone was subsequently ligated into the BamH1 site of the CaMV 35S expression cassette of the binary vector pPCV702Km, which is a disarmed Ti-plasmid of Agrobacterium tumefaciens, to generate the vector pPCV702:dsdA. Restriction analysis of this vector with endonuclease confirmed orientation of insertion.
A. thaliana, ecotype Col-0, plants were transformed with Agrobacterium tumefaciens strain (GV3101:pMP90 RK) through vacuum infiltration (Clough, S. J. & Bent, A. F. Plant Journal. 16, 735-743 (1998)). Transformants were selected on kanamycin containing plates, and molecularly confirmed using northern blots. All analyses were performed using lines homozygous for the transgenic trait.
(§2) A. thaliana seeds from non-transformed plants and D-Serine ammonia-lyase transformed plants were surface sterilised with 70% ethanol and 0.1% Tween 80 for 10 minutes and rinsed briefly in 95% ethanol. 10 seeds were sown in each plate and the plates where thereafter sealed with gas permeable tape. The growth medium was half-strength MS (Murashige, T. & Skoog, F. Physiol Plant 15, 310-313 (1962)) (with 0.5% w/v sucrose and 0.8% w/v agar) with nitrogen either excluded or included as 3 mM nitrate. Filter sterilised D-serine was added to the medium after autoclaving. Plants were grown for 14 days after germination with a 16 h photoperiod at 24° C. Plants were extracted from the plates, washed three times in 0.5 mM CaCl2 and thereafter dried at 40° C. for 48 hours before dry weight measurements. The N content was determined on dried plants using an elemental analyser (PerkinElmer 2400 CHN). Biomass and nitrogen content were measured on a per plate basis and there were 10 plants per plate. Six independent transgenic lines were evaluated for their capacity to grow on D-serine and no substantial difference was noticed among the lines, although dsdA transcript levels varied substantially according to northern blot analyses.
Transgenic Arabidopsis thaliana plants expressing the gene encoding D-serine dehydratase were grown sterile alongside wild type plants on agar for 20 days on standard MS medium supplemented with varying concentrations of D-serine as the sole N source (30 mM, 3 mM, 0.3 mM) along with a control lacking any nitrogen.

[8] = system: Somatic embryonic cell suspension cultures of Picea abies; assay: Somatic embryonic cell suspension cultures grown on a range of D-serine concentrations; type: cell-based; details: 0, 0.3, 3 and 30 mM tested
Protocol: Somatic embryonic cell suspension cultures of Picea abies were grown on a range of D-serine concentrations; 0, 0.3, 3 and 30 mM D-serine. D-serine was lethal to cells at and above 3 mM.

Nicotiana tabacum = assay: Growth of wild-type seedlings on nitrate free agar media amended with D-serine; type: in vivo; details: two to three weeks, 0, 0.3, 3 and 30 mM tested
Protocol: as §2, with “analyses. Seeds from Solanum esculentum, Hordeum vulgare, Zea mays, Populus tremuloides, Nicotiana tabacum and Arabidopsis thaliana were surface sterilised and grown for two to three weeks on agar media identical to the nitrate free media described above and amended with 0, 0.3, 3 and 30 mM D-serine.” for “analyses.”

Zea mays = assay: as above; type: in vivo; details: two to three weeks, 0, 0.3, 3 and 30 mM tested
Protocol: as §2, with “analyses. Seeds from Solanum esculentum, Hordeum vulgare, Zea mays, Populus tremuloides, Nicotiana tabacum and Arabidopsis thaliana were surface sterilised and grown for two to three weeks on agar media identical to the nitrate free media described above and amended with 0, 0.3, 3 and 30 mM D-serine.” for “analyses.”

Populus tremuloides = assay: as above; type: in vivo; details: two to three weeks, 0, 0.3, 3 and 30 mM tested
Protocol: as §2, with “analyses. Seeds from Solanum esculentum, Hordeum vulgare, Zea mays, Populus tremuloides, Nicotiana tabacum and Arabidopsis thaliana were surface sterilised and grown for two to three weeks on agar media identical to the nitrate free media described above and amended with 0, 0.3, 3 and 30 mM D-serine.” for “analyses.”

Hordeum vulgare = assay: as above; type: in vivo; details: two to three weeks, 0, 0.3, 3 and 30 mM tested
Protocol: as §2, with “analyses. Seeds from Solanum esculentum, Hordeum vulgare, Zea mays, Populus tremuloides, Nicotiana tabacum and Arabidopsis thaliana were surface sterilised and grown for two to three weeks on agar media identical to the nitrate free media described above and amended with 0, 0.3, 3 and 30 mM D-serine.” for “analyses.”

Lycopersicon esculentum = assay: as above; type: in vivo; details: two to three weeks, 0, 0.3, 3 and 30 mM tested
Protocol: as §2, with “analyses. Seeds from Solanum esculentum, Hordeum vulgare, Zea mays, Populus tremuloides, Nicotiana tabacum and Arabidopsis thaliana were surface sterilised and grown for two to three weeks on agar media identical to the nitrate free media described above and amended with 0, 0.3, 3 and 30 mM D-serine.” for “analyses.”

wild type Arabidopsis = assay: Growth of wild type plants on D-Asn or D-ile in sterile agar culture; type: in vivo, Arabidopsis thaliana

For `N[C@H](CO)C(=O)O` [D-serine], the “growth of wild-type plants with increasing D-serine concentration” value ([1]; D-serine as sole N source, 0.3, 3, 30 mM (FIG. 3)) was “No increase”, the “concentration in the growth medium at which clear growth inhibition is observed” value ([1]; FIG. 3) was 0.3 mM and the “concentration in the growth medium at which total growth inhibition occurs” value ([1]; FIG. 3) was 3 mM. The “toxicity to wild-type plants” value [1] was “toxic effect”, the “toxicity to wild-type plants” value ([1]; listed as D-ser) was “shows toxicity” and the “growth and nitrogen content of wild-type plants with increasing D-serine concentration” value ([1]; in the presence of a basic level of nitrate (3 mM) (FIG. 5)) was “opposite response”. For the same molecule, the “D-serine concentration in the media at which growth was inhibited” value ([1]; nitrate free agar, two to three weeks, 0, 0.3, 3 and 30 mM tested) was 3 mM, the “concentration to which transformed plants were resistant” value [2] was “exceeding 30 mM” and the “concentration to which transformed plants were resistant” value [3] was “exceeding 30 mM”. The “D-serine concentration of medium on which transformed embryos could be selected” value [4] was 3 mM, the “effect of expressed D-amino acid oxidase on toxicity of the D-amino acid” value ([5]; in vivo) was “alleviate the toxicity” and the “concentration sufficient to stop all shoot formation” value (wild type poplar) was 3 mM. The “concentration sufficient to stop all shoot formation” value (wild type tobacco) was 30 mM, the “selection of transgenic plants by spraying” value [6] was “Successful selection” and the “N concentration of plants compared with plants grown on 3 mM nitrate” value ([7]; 3 mM D-serine, ANOVA p<0.0001) was “significantly lower”. For the same molecule, the “growth and N content of transgenic plants with increasing D-serine concentration” value ([7]; D-serine as sole N source, p<0.0001 (FIG. 4)) was “increase significantly”, the “growth on D-serine compared with nitrate at equal concentration” value ([7]; FIG. 4(top) and 5(top)) was “lower growth” and the “growth and nitrogen content of transgenic plants with increasing D-serine concentration” value ([7]; in the presence of a basic level of nitrate (3 mM), p<0.0001 (FIG. 5)) was “increased significantly”. The “toxicity symptoms in transgenic plants” value ([7]; within the observed range of D-Ser) was “no toxicity symptoms”, the “concentration lethal to cells” value [8] was no less than 3 mM and the “D-serine concentration in the media at which growth was inhibited” value (Nicotiana tabacum) was 3 mM. For the same molecule, the “D-serine concentration in the media at which growth was inhibited” value (Zea mays) was 30 mM, the “D-serine concentration in the media at which growth was inhibited” value (Populus tremuloides) was 3 mM and the “D-serine concentration in the media at which growth was inhibited” value (Hordeum vulgare) was 30 mM. The “D-serine concentration in the media at which growth was inhibited” value (Lycopersicon esculentum) was 3 mM.
For `C[C@@H](N)C(=O)O` [D-alanine], the “effect of expressed D-amino acid oxidase on toxicity of the D-amino acid” value ([5]; in vivo) was “alleviate the toxicity”.
With `CC[C@@H](C)[C@@H](N)C(=O)O` [D-ile] the “wild type growth with increasing concentration” value (wild type Arabidopsis; examined interval 0.3 to 30 mM) was “increase in growth”, the “inhibitory effect on wild type plants” value (wild type Arabidopsis; in vivo) was “no visible inhibitory effect” and the “hindering of growth of transgenic plants expressing dao1 (compared with D-Asn)” value ([5]; in vivo) was “even more effective in hindering growth”.
`NC(=O)C[C@@H](N)C(=O)O` [D-Asn] was tested, and the “growth of wild type plants” value (wild type Arabidopsis; 30 mM, sterile agar culture) was “only partially retarded” and the “growth / germination of D-amino oxidase expressing plants” value ([5]; 30 mM, sterile agar culture) was “total inhibition of growth; also recorded: inhibited significantly more than the wild-type”.
